Reference: US6682927B2, “Methods and apparatus for the high through-put detection of binding interactions in vivo” (priority 1998, dated 2004)

Legend:
[1] = test system: hippocampal astrocytes expressing PKCγ-GFP; assay: Plasma membrane translocation of PKCγ-GFP by evanescent wave excitation; format: cell-based; details: glutamate 100 μM, ionomycin 2 μM
Description: FIG. 7. Plasma membrane translocation of PKCγ measured in hippocampal astrocytes by evanescent wave excitation. (A) Time series of fluorescent images of cultured hippocampal astrocytes expressing PKCγ-GFP stimulated with glutamate (100 μM; n=47). […] (B) The same experiment as in (A) but with calcium ionophore added (2 μM ionomycin; n=8). (Bars=10 μm in (A) and (B)). (C) Time course of PKCγ-GFP translocation measured as a fractional increase in fluorescence intensity and triggered by glutamate addition (100 μM, left) to a single astrocyte (left panel; n=47). (D) Similar periodic intensity changes in an RBL stably expressing PAF receptors following the addition of 100 nM PAF. Ionomycin was added at the end of each experiment (2 μM).
Cell Culturing. Rat basophilic leukemia 2H3 (RBL) cells were grown and plated as described by Oancea, et al. ((1997) J. Cell Biol. 140, 485-498) and Oancea, E. & Meyer, T. ((1998) Cell 95, 307-318). […]
Evanescent Wave Excitation and Fluorescence Microscopy (also termed Total Internal Reflection Fluorescence Microscopy or TIRFM). […] For glass coverslips, total internal reflection occurs for angles above 61° [θI,c=arcsin(n2/n1), calculated for a refractive index n1=1.52 for glass and n2=1.33 for water]. […] The space constant of the exponential decay I(z)=I(0)exp(−z/d) at a given angle can be calculated as described by Axelrod ((1981) J. Cell. Biol. 89, 141-145). […]

[2] = test system: RBL-cells that express C1A-CaMKII and GFP-CaMKIIα; assay: In vivo protein-protein binding assay with inducible C1A translocation domain, evanescent wave excitation; format: cell-based, Rat; details: PDBu 1 μM, n=3
Source text: FIG. 10. Measuring protein-protein binding interactions of cytosolic proteins using an evanescent wave excitation. (A) Schematic representation of the in vivo binding assay. Binding between Proteins X and Y can be measured by conjugating Protein X with GFP and Protein Y with an inducible plasma membrane targeting domain. […] The C1A-domain from PKCγ was used as an inducible translocation domain. […] Typical translocation traces are shown.
Cloning of GFP-Fusion Constructs and Electroporation. […]
Measuring Protein-Protein Binding Interactions with High Signal-to-Background by Evanescent Wave Excitation. Protein-protein binding interactions have been measured previously by using a dual protein fusion strategy in which a protein Y was conjugated with an inducible plasma membrane translocation domain and a protein X with a GFP-tag (FIG. 5A, ref. 40). By inducing plasma membrane translocation of the non-fluorescent protein Y, the increase in plasma membrane fluorescence from the fluorescent protein X becomes a measure for the fraction of protein X that is bound to protein Y (since it is carried along with protein Y to the plasma membrane). […]
Evanescent wave excitation was now used in combination with the same assay. […] RNA transfection was used for quantitative expression of the two constructs (Teruel, et al. (1999) J. Neuroscience Methods 93: 37-48). […]

[3] = test system: cells expressing the plasma membrane localized GFP construct; assay: Control: fluorescence of cells expressing plasma membrane localized GFP; format: cell-based; details: ionomycin and phorbol ester added together
Description: FIG. 6. Evanescent wave excitation of fluorescent cytosolic and membrane proteins in adherent cells. (A) Schematic view of the microscope setup (see Materials and Methods section for description). (B) Fluorescent images of RBL cells that express cytosolic GFP (left; representative of 6 experiments) or plasma membrane targeted GFP (right, n=3). A myristoylation/palmitoylation sequence was fused to the N-terminal end of GFP for membrane targeting.
Fluorescent images were recorded from RBL-cells that had similar levels of expressed cytosolic or plasma membrane localized GFP constructs. The targeting of GFP to the plasma membrane utilized a fusion of the 12 amino acid palmitoylation/myristoylation plasma membrane targeting sequence from Lyn to the N-terminus of GFP (Teruel, et al. (1999) J. Neuroscience Methods 93: 37-48). The fluorescence intensity of cells with expressed cytosolic GFP (FIG. 6B) was typically 3 to 10-fold lower than the intensity of cells with expressed plasma membrane targeted GFP (FIG. 6C).
Analysis of Receptor Triggered Translocation of PKCγ-GFP in Thin Cells. […] The changes in fluorescence intensity could be followed in a series of several hundred images. […] Similar receptor-triggered fluorescence intensity oscillations could be observed in RBL cells (FIG. 7D) and 3T3 fibroblasts (data not shown).

[4] = test system: RBL cells expressing PKCγ-YFP; assay: E-SCAM measurement of plasma membrane translocation of PKCγ-YFP; format: cell-based, Rat; details: ionomycin-induced PKCγ translocation in RBL cells; data not shown
Source text: FIG. 11. E-SCAM measurement of plasma membrane translocation events in more than a thousand cells. (A) Schematic view of the Evanescent wave Single Cell Array Macroscope (E-SCAM) in which the excitation light is directly coupled into the coverslip. (B) Low magnification images of RBL, cells expressing PKCγ-YFP before (left) and after stimulation with calcium ionophore (right). […] (Bar=1 mm). (C and D) Statistical analysis of receptor-triggered fluorescence intensity changes measured in RBL-cells expressing PKCγ-YFP after stimulation by cross-linking of their FcεRI receptors with the antigen DNP-BSA. (C) Typical time courses. (D) Histogram of the maximum amplitude of fluorescence intensity changes that was measured in each of more than 1000 cells visible in the field of view.
Construction of an Evanescent wave Single Cell Array Macroscope (E-SCAM). A wide-field microscope (macroscope) was designed in similar fashion to the higher magnification system described above. Two Rodenstock 100 mm Heligon lenses were mounted below the coverslip in opposite directions to obtain a combined objective and ocular with 1:1 magnification. The second lens projected the sample image onto a 5 MHz Micromax camera made commercially available from Roper Scientific of Trenton, N.J. This lens combination has high spatial and chromatic accuracy as well as a numerical aperture of NA˜0.3 (F/1.6). […]

Structure (SMILES) | change in fluorescence intensity (PKCγ-GFP translocation) [1] | plasma membrane fluorescence change, C1A-CaMKIIα and GFP-CaMKIIα [2] | change in fluorescence intensity of plasma membrane localized GFP (control) [3] | cell compliance of induced translocation [4]
N[C@@H](CCC(=O)O)C(=O)O [glutamate] | marked increase in fluorescence intensity | – | – | –
CCCC(=O)O[C@@H]1[C@@H](C)[C@@]2(O)[C@@H](C=C(CO)C[C@]3(O)C(=O)C(C)=C[C@@H]23)[C@@H]2C(C)(C)[C@]12OC(=O)CCC [PDBu] | – | marked increase in plasma membrane fluorescence | no significant change in fluorescence intensity | –
C[C@H](CCC(=O)O)C[C@H](C)C[C@H](C)C(=O)/C=C(\O)[C@H](C)C[C@H](C)C/C=C/[C@@H](C)[C@@H](O)[C@@H](C)[C@@H](O)C[C@@H]1CC[C@@](C)([C@H]2CC[C@@](C)([C@@H](C)O)O2)O1 [ionomycin] | – | – | no significant change in fluorescence intensity | 100%
